Patent publication US12577238B2, “Compositions and methods for modulating inflammatory and degenerative disorder” (University of Southern California, priority 2018, dated 2026)
Entries after “also recorded” stand apart in the source; their conditions may differ.

Legend:
[1] = tested on: pig articular cartilage explants; experiment: Matrix degradation assay, OSM-driven, pig articular cartilage explants; format: cell-based; conditions: driven by OSM
Method: FIG. 22A-C show matrix degradation assays.
72 hour exposure to the drug and OSM. […] Effect is concentration dependent and increases with increase in drug concentration.
(§1) Firstly, RCGD 423 was a hit from a library; this made the depth of the discovery surrounding the technology less comprehensive. Additionally, the physical properties of RCGD 423 (solubility, potency, functional groups) could be improved. Significant gains in these areas could potentially result in a first-in-class injectable for the treatment of post-traumatic OA. Moreover, the potential risks associated with promoting MYC stabilization and proliferation in gp130^+ cells as well as large increases in active STAT3 protein was of concern. […] These compounds were then screened in adult pig articular chondrocytes and cartilage explants, seeking compounds that could inhibit the catabolic effects of OSM but not drive increases in MYC and pSTAT3 protein levels. […] Together, these preliminary data identify CX-011 (B8) as a highly anti-inflammatory, anti-catabolic alternative to RCGD 423, with increased “drug-like” properties and reduced potential molecular liabilities.

gp130 [2] = target: T1, gp130 (Homo sapiens, UniProt P40189); experiment: OSM-mediated activation of gp130 in adult human articular chondrocytes; format: cell-based; conditions: three independent donors
T1 construct: endogenous in cells; host or cells: adult human articular chondrocytes (three donors)
T1 sequence (P40189 23-918): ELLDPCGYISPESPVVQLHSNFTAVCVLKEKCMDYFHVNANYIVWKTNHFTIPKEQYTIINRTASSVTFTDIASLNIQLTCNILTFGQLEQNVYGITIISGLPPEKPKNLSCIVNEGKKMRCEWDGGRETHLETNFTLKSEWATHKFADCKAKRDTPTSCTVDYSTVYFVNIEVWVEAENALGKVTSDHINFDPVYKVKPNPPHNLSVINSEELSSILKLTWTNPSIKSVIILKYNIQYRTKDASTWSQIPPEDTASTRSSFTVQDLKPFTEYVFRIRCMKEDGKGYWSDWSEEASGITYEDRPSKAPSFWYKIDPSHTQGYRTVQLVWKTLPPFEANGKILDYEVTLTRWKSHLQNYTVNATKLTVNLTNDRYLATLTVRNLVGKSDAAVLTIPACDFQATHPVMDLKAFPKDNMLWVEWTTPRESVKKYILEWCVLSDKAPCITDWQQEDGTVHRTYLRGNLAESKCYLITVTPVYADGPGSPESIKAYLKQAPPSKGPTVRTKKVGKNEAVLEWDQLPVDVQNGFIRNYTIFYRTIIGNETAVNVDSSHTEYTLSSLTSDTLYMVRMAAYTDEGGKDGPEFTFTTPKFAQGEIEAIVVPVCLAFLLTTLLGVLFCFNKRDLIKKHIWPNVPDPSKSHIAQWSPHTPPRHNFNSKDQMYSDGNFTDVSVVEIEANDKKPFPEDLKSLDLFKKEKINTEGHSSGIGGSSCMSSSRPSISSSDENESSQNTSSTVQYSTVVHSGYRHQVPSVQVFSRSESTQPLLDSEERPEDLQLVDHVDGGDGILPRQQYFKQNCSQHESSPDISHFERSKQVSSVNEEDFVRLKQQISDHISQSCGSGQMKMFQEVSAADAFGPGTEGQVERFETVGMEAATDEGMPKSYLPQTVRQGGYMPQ
Text: 423F is the positive control drug. Adult human articular chondrocytes from three independent donors were used to generate the results.
Adult human articular chondrocytes from three independent donors were used to generate the results.
Adult human articular chondrocytes from three independent donors were used.

gp130 [3] = target: T2, gp130 (Rattus norvegicus, UniProt P40190); experiment: Injection into rat knees, pSTAT3 and MYC levels; format: in vivo; conditions: co-injection with RCGD 423 into rat knees
T2 construct: from tissue; host or cells: rat knee joint in vivo (Sprague-Dawley wild-type in the CFA model)
T2 sequence (P40190 23-918): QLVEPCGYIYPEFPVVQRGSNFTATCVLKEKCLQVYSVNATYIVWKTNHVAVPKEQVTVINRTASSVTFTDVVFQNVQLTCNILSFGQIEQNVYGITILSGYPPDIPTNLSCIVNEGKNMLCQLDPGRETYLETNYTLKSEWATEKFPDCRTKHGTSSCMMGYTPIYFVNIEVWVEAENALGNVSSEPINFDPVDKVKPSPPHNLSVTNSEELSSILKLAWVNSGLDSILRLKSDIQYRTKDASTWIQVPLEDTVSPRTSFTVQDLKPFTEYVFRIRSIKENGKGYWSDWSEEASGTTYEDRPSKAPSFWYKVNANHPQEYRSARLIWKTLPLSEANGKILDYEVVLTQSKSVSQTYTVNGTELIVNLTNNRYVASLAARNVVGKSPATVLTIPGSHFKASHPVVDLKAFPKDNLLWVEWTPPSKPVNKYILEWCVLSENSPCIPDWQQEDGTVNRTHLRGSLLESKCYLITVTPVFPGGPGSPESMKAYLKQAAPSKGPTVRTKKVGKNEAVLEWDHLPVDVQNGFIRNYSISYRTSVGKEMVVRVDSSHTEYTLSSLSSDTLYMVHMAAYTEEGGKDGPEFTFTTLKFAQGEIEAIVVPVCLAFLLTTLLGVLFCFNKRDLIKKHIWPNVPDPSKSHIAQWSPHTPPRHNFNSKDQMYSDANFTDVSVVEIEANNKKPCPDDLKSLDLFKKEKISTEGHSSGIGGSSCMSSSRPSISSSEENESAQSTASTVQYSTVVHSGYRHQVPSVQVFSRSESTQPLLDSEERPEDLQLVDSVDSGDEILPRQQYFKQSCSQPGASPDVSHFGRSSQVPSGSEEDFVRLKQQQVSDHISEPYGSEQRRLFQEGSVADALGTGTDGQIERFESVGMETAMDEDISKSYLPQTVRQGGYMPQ
Method: Based on this, it was hypothesized that RCGD 423 acts through gp130 by promoting stable homodimers in the absence of ligand. To confirm that RCGD 423 acts through gp130, the gp130 null cell line Ba/F3 cells was used. Ba/F3 cells were transfected with either full-length gp130 or a mutant gp130 lacking domain 2 (ΔD2), which contains the predicted binding site for RCGD 423 (FIG. 7). […] To verify the specificity of RCGD 423 in vivo, the compound was injected into rat knees in the presence of the small molecule gp130 inhibitor SC144 or a blocking antibody specific for domain 2 of gp130. […] The ability of RCGD 423 to act via inducing formation of gp130 homodimers was then examined by expressing tagged versions of gp130 in 293T cells. In this system, only homodimeric complexes can contain both tagged versions of gp130 (FIG. 9).

[4] = tested on: adult pig articular chondrocytes; experiment: Western blot of signaling proteins (pSTAT3, MYC, MAPK, AKT, NF-κB) in pig articular chondrocytes; format: cell-based; conditions: for levels of active STAT3 (pSTAT3) and MYC proteins: Western blot, analogs at 10 μM; for activation of the MAPK, AKT and NF-κB pathways: adult pig articular chondrocytes
Method: (A) Class 1 molecules (marked by red arrows) activate STAT3 and MYC signaling pathways wile Class 2 molecules (blue arrows) have no stimulatory effects on STAT3 and MYC signaling in chondrocytes as determined by western blot analysis. (B) Structures of the most prominent Class 1 and Class 2 molecules. […] All drugs were tested at 10 μM and assessed using Western Blot.
All drugs tested at 10 μM and assessed using Western Blot.
(§2) To begin to address the mechanism of action of RCGD 423, adult pig chondrocytes were incubated with the drug, IL-6 family cytokines or the pro-catabolic cytokines TNF-α and IL-1β and measured levels of various proteins downstream of these cytokines that are known to drive catabolic responses (FIG. 3).
as §1

ADAMTS4/5 and MMP13 = experiment: qPCR for proteolytic enzymes in adult pig chondrocytes; format: cell-based
Method: as §2

[5] = tested on: adult pig articular chondrocytes; experiment: Proteins mediating pro-inflammatory signals with or without OSM; format: cell-based
Text: as §1

MMP13 and ADAMTS4 = experiment: OSM-induced MMP13 and ADAMTS4 levels; format: cell-based

Cc1ccccc1-c1cccc(NC(=O)c2ccno2)n1 [B849]
breakdown of collagen and aggrecan (aggrecan-neo, collagen-neo epitopes) [1]: can still strongly prevent the breakdown of collagen and aggrecan

O=C(Nc1nc(C2CC2)cs1)c1ccno1 [B826]
breakdown of collagen and aggrecan (aggrecan-neo, collagen-neo epitopes) [1]: can still strongly prevent the breakdown of collagen and aggrecan | OSM-mediated activation of gp130 (gp130 [2]): strongly inhibits OSM-mediated activation of gp130

O=C(NNc1nc2cc(F)ccc2n2cccc12)c1cnccn1 [SC144]
blockade of signaling downstream of RCGD 423 (gp130 [3]): completely inhibited signaling downstream of RCGD 423; also recorded: could be blocked by co-injection

Cc1ccc(-c2cccc(NC(=O)c3ccccn3)n2)cc1 [B839]
breakdown of collagen and aggrecan (aggrecan-neo, collagen-neo epitopes) [1]: strongly prevent the breakdown of collagen and aggrecan

Cc1ccccc1-c1csc(NC(=O)c2ccno2)n1 [B815]
OSM-mediated activation of gp130 (gp130 [2]): inhibit OSM-mediated activation of gp130; also recorded: inhibit OSM-mediate d activation of gp130

LIF: leukemia inhibitory factor, IL-6 family cytokine
levels of active STAT3 (pSTAT3) and MYC proteins [4]: increased levels of active STAT3 and MYC proteins | activation of the MAPK, AKT and NF-κB pathways [4]: activated the MAPK, AKT and NF-κB pathways | expression of proteolytic enzymes ADAMTS4/5 and MMP13 (ADAMTS4/5 and MMP13): significant increases in the expression of these genes

Cc1ccc(-c2csc(NC(=O)c3oncc3C)n2)cc1 [B840]
levels of active STAT3 (pSTAT3) and MYC proteins [4]: pSTAT3 and MYC activating | breakdown of collagen and aggrecan (aggrecan-neo, collagen-neo epitopes) [1]: can also strongly prevent the breakdown of collagent and aggrecan

Cc1ccc(-c2csc(NC(=O)c3ccno3)n2)cc1 [B8]
levels of active STAT3 (pSTAT3) and MYC proteins ([4]; listed as CX-011): do not affect levels of pSTAT3 or MYC protein | levels of active STAT3 (pSTAT3) and MYC proteins ([4]; listed as CX-011 (B8)): did not increase levels of pSTAT3 and MYC | increases in proteins mediating pro-inflammatory signals ([5]; in the presence of OSM): strongly inhibits increases in these proteins in the presence of OSM | endogenous levels of proteins mediating pro-inflammatory signals ([5]; without OSM): little effect | breakdown of collagen and aggrecan (aggrecan-neo, collagen-neo epitopes) ([1]; listed as CX-011): prevents the breakdown of collagen and aggrecan | increase in catalytic enzymes / induction of proteolytic gene expression ([1]; listed as CX-011): prevents | breakdown of collagen and aggrecan (aggrecan-neo, collagen-neo epitopes) ([1]; listed as CX-011 (B8)): almost completely blocked the generation of aggrecan and collagen neoepitopes | increase in catalytic enzymes / induction of proteolytic gene expression ([1]; listed as CX-011 (B8)): reduced the induction of proteolytic gene expression | OSM-mediated activation of gp130 (gp130 [2]): inhibit OSM-mediated activation of gp130

Cc1ccc(-c2nc(NC(=O)c3ccccn3)cs2)cc1 [B843]
breakdown of collagen and aggrecan (aggrecan-neo, collagen-neo epitopes) [1]: can still strongly prevent the breakdown of collagen and aggrecan

IL-6: IL-6 family cytokine
levels of active STAT3 (pSTAT3) and MYC proteins [4]: increased levels of active STAT3 and MYC proteins | activation of the MAPK, AKT and NF-κB pathways [4]: activated the MAPK, AKT and NF-κB pathways | expression of proteolytic enzymes ADAMTS4/5 and MMP13 (ADAMTS4/5 and MMP13): significant increases in the expression of these genes

Cc1ccc(-c2csc(NC(=O)c3cnco3)n2)cc1 [B803]
OSM-mediated activation of gp130 (gp130 [2]): inhibit OSM-mediated activation of gp130; also recorded: inhibit OSM-mediate d activation of gp130

Cc1ccc(-c2cccc(NC(=O)c3ccno3)n2)cc1 [B810]
levels of active STAT3 (pSTAT3) and MYC proteins [4]: pSTAT3 and MYC activating | breakdown of collagen and aggrecan (aggrecan-neo, collagen-neo epitopes) [1]: can also strongly prevent the breakdown of collagent and aggrecan

B1: OSM: pro-inflammatory cytokine oncostatin M (protein, UniProt P13725 26-221, looked up)
Oncostatin-M: AAIGSCSKEYRVLLGQLQKQTDLMQDTSRLLDPYIRIQGLDVPKLREHCRERPGAFPSEETLRGLGRRGFLQTLNATLGCVLHRLADLEQRLPKAQDLERSGLNIEDLEKLQMARPNILGLRNNIYCMAQLLDNSDTAEPTKAGRGASQPPTPTPASDAFQRKLEGCRFLHGYHRFMHSVGRVFSKWGESPNRSRR
levels of MMP13 and ADAMTS4 (degradation of cartilage matrix proteins) (MMP13 and ADAMTS4): upregulates levels of MMP13 and ADAMTS proteases
